“Also recorded” adds a separate entry of the source.
Assays:
[1] = target: T1, MrgprB2 (Mus musculus, UniProt Q3KNA1); assay: Calcium imaging / EC50 determination in HEK293 cells expressing MrgprB2 (MrgprB2-HEK); format: cell-based; conditions: HEK293 cells heterologously expressing MrgprB2
T1 construct: expressed in transfected cells
T1 sequence (Q3KNA1 1-338): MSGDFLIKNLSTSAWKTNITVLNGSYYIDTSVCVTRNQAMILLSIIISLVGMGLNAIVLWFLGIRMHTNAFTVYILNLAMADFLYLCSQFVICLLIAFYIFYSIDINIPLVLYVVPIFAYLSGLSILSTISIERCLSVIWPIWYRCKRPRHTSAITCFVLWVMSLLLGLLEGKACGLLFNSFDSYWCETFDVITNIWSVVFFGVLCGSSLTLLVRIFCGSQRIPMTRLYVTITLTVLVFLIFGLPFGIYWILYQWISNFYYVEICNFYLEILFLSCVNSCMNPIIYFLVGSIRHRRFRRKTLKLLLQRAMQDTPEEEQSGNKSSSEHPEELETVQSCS
Procedure: In initial screens, HEK293 cells (not tested for Mycoplasma but rapidly dividing) were transiently transfected with gene constructs including a C-terminal FLAG tag, and plated on 100 μg/ml poly-D-lysine coated glass cover slips six hours after transfection. […] Later experiments utilized cell lines stably expressing receptors along with transient or stable expression of the promiscuous G protein Gα15. […] Unless otherwise specified, drugs were perfused into the chamber for 45 to 60 seconds and responses were monitored at 5-second intervals for an additional 60-90 seconds.
HEK293 cells stably expressing Galpha15 and either MrgprB2 or MrgprX2 were plated at 4×10^4 cells per well in 96-well plates and incubated overnight. […] Cells were incubated at 37° C. for 60 minutes, and allowed to recover for 15 minutes at room temperature before imaging in a Flexstation 3 (Molecular Devices). Wells were imaged according to manufacturer's specifications for 120 seconds, with 50 μl of test substances at 3× concentration added 30 seconds after imaging began. Responses were determined by subtracting the minimum signal from the maximum signal. Substances were tested in duplicate wells, the signals were averaged, and EC50s were determined for each trial by normalizing to the peak response to the substance in that trial.

[2] = test system: mouse peritoneal mast cells; assay: Peritoneal mast cell Fluo-4 calcium imaging, WT vs MrgprB2^MUT; format: cell-based; conditions: for activation / responsiveness of peritoneal mast cells, WT vs MrgprB2^MUT: Fluo-4 imaging, concentrations per FIG. 2A, 2E, 3A, 4C, 4E, 11 legends
Procedure: Adult male and female mice 2-5 months of age were sacrificed through CO2 inhalation. A total of 12 mls of ice cold mast cell dissociation media (MCDM; HBSS with 3% fetal bovine serum and 10 mM HEPES, pH 7.2) were used to make two sequential peritoneal lavages, which were combined and cells were spun down at 200 g. The pellet from each mouse was resuspended in 2 mls MCDM, layered over 4 mls of an isotonic 70% Percoll suspension (2.8 mls Percoll, 320 μls 10×HBSS, 40 μl 1 M HEPES, 830 μl MCDM), and spun down for 20 minutes, 500 g, 4° C. Mast cells were recovered in the pellet. Purity was >95%, as assayed by avidin staining and by morphology. Mast cells were resuspended at 5×10^5-1×10^6 cells/ml in DMEM with 10% fetal bovine serum and 25 ng/ml recombinant mouse stem cell factor (Sigma), and plated onto glass cover slips coated with 30 μg/ml fibronectin (Sigma). For counting, instead of plating, suspended mast cells were diluted 1/10 and affixed to slides by spinning at 1000 rpm for 5 minutes at 4° C. on a CytoSpin (Thermo Scientific).
For imaging, after two hours of incubation at 37° C., 5% CO2, mast cells were loaded with Fluo-4 along with 0.02% Pluronic F-127 for 30 minutes at room temperature, washed 3 times in CIB and used immediately for imaging. Cells were used within two hours of loading. Cells were identified as responding if the [Ca^2+]i rose by at least 50% for at least 10 seconds, which clearly distinguishes a ligand-induced response from random flickering events. Average traces were calculated by taking the average response from each cell in a mouse, and averaging those.

[3] = test system: peritoneal mast cells; assay: Mouse peritoneal mast cell histamine release assay; format: cell-based; conditions: WT vs MrgprB2^MUT peritoneal mast cells
Procedure: Mast cells were purified as with the calcium imaging assay and allowed to recover for 2 hours in DMEM with 10% FBS and 25 ng/ml mouse stem cell factor in a 37° C. incubator with 5% CO2. Cells were then spun down, resuspended in CIB, counted, and plated at 300 cells/well in 75 μl CIB in 96-well plates coated with 20 μg/ml fibronectin (Sigma). They were allowed to adhere to the substrate for 45 minutes at 37° C. in atmospheric conditions (i.e. CO2 levels were not adjusted) before assay. […] After 5 minutes, 40 μl of supernatant was aspirated, diluted with 40 μl CIB and frozen at −80° C. until histamine levels were determined. Anti-IgE treatment was similar, except that cells were incubated for 30 minutes at 37° C. after anti-IgE was added before aspiration of supernatant. Histamine content was determined by using an HTRF histamine assay kit (Cisbio Assays) according to the manufacturer's instructions.

[4] = test system: LAD2 human mast cells; assay: LAD2 degranulation assay (β-hexosaminidase release), with MrgprX2 siRNA knockdown; format: cell-based; conditions: for β-hexosaminidase release in MrgprX2 siRNA vs control siRNA cells: compound 48/80 0.1, mastoparan 5, icatibant 10, atracurium 25, ciprofloxacin 75 μg/ml
Procedure: LAD2 cells were sensitized for 20 hours with 0.5 μg/ml biotin-conjugated human IgE (Abbiotec). Cells were washed, resuspended in Hepes buffer (10 mM HEPES, 137 mM NaCl, 2.7 mM KCl, 0.38 mM Na2HPO4.7H2O, 5.6 mM glucose, 1.8 mM CaCl2.H2O, 1.3 mM MgSO4.7H2O, 0.4% BSA, pH 7.4) at 0.025×10^6 per well, and then stimulated with 0.1 μg/ml streptavidin (Life Technologies) or other agonists at the indicated concentrations for 30 minutes at 37° C./5% CO2. The β-hexosaminidase released into the supernatants and in cell lysates was quantified by hydrolysis of p-nitrophenyl N-acetyl-β-D-glucosamide (Sigma-Aldrich) in 0.1 M sodium citrate buffer (pH 4.5) for 90 minutes at 37° C. The percentage of β-hexosaminidase release was calculated as a percent of total content.
LAD2 cells were washed with medium, suspended at 0.5×10^6 cells per well, and transfected with 100 nm MrgprX2 siRNA and control siRNA in antibiotic-free StemPro medium using Lipofectamine 3000 (Life Technologies) according to the manufacturer's instruction at 37° C./5% CO2. At 48 hours, knockdown was confirmed by reverse-transcriptase PCR, and the cells were used for degranulation assays.

[5] = Drug preparation and storage observations; format: physicochemical
Procedure: Propranolol also was prepared fresh on the day of the experiment to minimize the chances of a loss in potency. All fluoroquinolones except levofloxacin were dissolved into CIB adjusted to pH 3.5. All other drugs were prepared as 100×-1000× aliquots and stored at −80° C. before thawing at 4° C. and diluting into calcium imaging buffer or saline.

[6] = test system: WT and MrgprB2^MUT mice; assay: Hindpaw swelling and Evans Blue extravasation; format: in vivo, mouse
Procedure: Adult male mice up to 8 months of age were anesthetized with an i.p. injection of 50 mg/kg pentobarbital (Sigma). 15 minutes after induction of anesthesia, mice were injected i.v. with 50 μl of 12.5 mg/ml Evans Blue (Sigma) in saline. 5 minutes later, 5 μl of the test substance (or 7 μl of anti-IgE) was administered by intraplantar injection in one paw and saline was administered in the other paw. Paw thickness was measured by calipers immediately after injection. 15 minutes later (30 minutes after anti-IgE), paw thickness was measured again and mice were sacrificed by decapitation. Paw tissue was collected, dried for 24 hours at 50° C., and weighed. Evans Blue was extracted by a 24 hour incubation in formamide at 50° C., and the O.D. was read at 620 nm using a spectrophotometer. For studies using ketotifen, mice were injected i.p. with 25 μl of a 10 mg/ml solution of ketotifen at the same time as pentobarbital.

## CC(C)C[C@H](NC(=O)[C@H](C)NC(=O)[C@H](Cc1c[nH]c2ccccc12)NC(=O)[C@H](CCCCN)NC(=O)[C@H](CC(N)=O)NC(=O)[C@H](Cc1c[nH]c2ccccc12)NC(=O)[C@H](CCCCN)NC(=O)[C@H](CCCCN)NC(=O)[C@H](CCCNC(=N)N)NC(=O)[C@@H](N)Cc1ccccc1)C(=O)N[C@@H](CO)C(=O)N[C@@H](CCCNC(=N)N)C(N)=O [PAMP (9-20)]
[1]
  response of MrgprB2-HEK cells ([Ca2+]i): responded
[2]
  activation / responsiveness of peritoneal mast cells, WT vs MrgprB2^MUT: strongly activated WT but not MrgprB2^MUT mast cells

## CSCC[C@H](NC(=O)[C@H](CC(C)C)NC(=O)CNC(=O)[C@H](Cc1ccccc1)NC(=O)[C@H](Cc1ccccc1)NC(=O)[C@H](CCC(N)=O)NC(=O)[C@H](CCC(N)=O)NC(=O)[C@@H]1CCCN1C(=O)[C@H](CCCCN)NC(=O)[C@@H]1CCCN1C(=O)[C@@H](N)CCCNC(=N)N)C(N)=O [Substance P]
[1]
  response of MrgprB2-HEK cells ([Ca2+]i): responded

## COc1ccc(CC2c3cc(OC)c(OC)cc3CC[N+]2(C)CCC(=O)OCCCCCOC(=O)CC[N+]2(C)CCc3cc(OC)c(OC)cc3C2Cc2ccc(OC)c(OC)c2)cc1OC (stereo not shown) [atracurium]
[3]
  histamine release from WT peritoneal mast cells (MrgprB2^MUT released substantially less): induced histamine release
[4]
  β-hexosaminidase release in MrgprX2 siRNA vs control siRNA cells: significantly reduced
[5]
  stability of potency of solutions: susceptible to oxidation and/or freeze-thaw effects

## CCN(CC)CCCC(C)Nc1ccnc2cc(Cl)ccc12 (stereo not shown) [chloroquine]
[1]
  response of MrgprB2-HEK cells ([Ca2+]i): no response

## CC[C@H](C)[C@H](NC(=O)[C@H](CC(=O)O)NC(=O)[C@H](CC(C)C)NC(=O)[C@H](Cc1c[nH]cn1)NC(=O)[C@@H]1CSSC[C@H](N)C(=O)N[C@@H](CO)C(=O)N[C@H]2CSSC[C@H](NC(=O)[C@H](CCC(=O)O)NC(=O)[C@H](CCCCN)NC(=O)[C@H](CC(=O)O)NC(=O)[C@H](CCSC)NC(=O)[C@H](CC(C)C)NC(=O)[C@H](CO)NC(=O)[C@H](CO)NC2=O)C(=O)N[C@@H](C(C)C)C(=O)N[C@@H](Cc2ccc(O)cc2)C(=O)N[C@@H](Cc2ccccc2)C(=O)N1)C(=O)N[C@H](C(=O)N[C@@H](Cc1c[nH]c2ccccc12)C(=O)O)[C@@H](C)CC [endothelin]
[2]
  activation / responsiveness of peritoneal mast cells, WT vs MrgprB2^MUT: comparable
[2]; listed as Endothelin
  activation / responsiveness of peritoneal mast cells, WT vs MrgprB2^MUT: not significantly different

## NC(N)=NCCC[C@@H](N)C(=O)N[C@@H](CCCN=C(N)N)C(=O)N1CCC[C@H]1C(=O)N1C[C@H](O)C[C@H]1C(=O)NCC(=O)N[C@@H](Cc1cccs1)C(=O)N[C@@H](CO)C(=O)N1Cc2ccccc2C[C@@H]1C(=O)N1[C@H](C(=O)N[C@@H](CCCN=C(N)N)C(=O)O)C[C@@H]2CCCC[C@@H]21 [icatibant]
[6]; icatibant at the clinical concentration, intraplantar 10 mg/ml, 5 μl, 15 minutes
  hindpaw extravasation and swelling in WT mice but not in MrgprB2^MUT mice: induced extensive extravasation and swelling
[6]; icatibant intraplantar, no ketotifen pretreatment, n=4
  increase in paw thickness, without ketotifen: 40.7±2.1%
[3]
  histamine release from WT peritoneal mast cells (MrgprB2^MUT released substantially less): induced histamine release
[4]
  β-hexosaminidase release in MrgprX2 siRNA vs control siRNA cells: significantly reduced

## CN1CCC(=C2c3ccccc3CC(=O)c3sccc32)CC1 [ketotifen]
[6]; icatibant intraplantar after ketotifen i.p. pretreatment (25 μl of 10 mg/ml), n=4
  increase in paw thickness, with ketotifen: 3.1±0.6%

## CC[C@H](C)[C@H](N)C(=O)N[C@@H](CC(N)=O)C(=O)N[C@@H](CC(C)C)C(=O)N[C@@H](CCCCN)C(=O)N[C@@H](C)C(=O)N[C@@H](CC(C)C)C(=O)N[C@@H](C)C(=O)N[C@@H](C)C(=O)N[C@@H](CC(C)C)C(=O)N[C@@H](C)C(=O)N[C@@H](CCCCN)C(=O)N[C@@H](CCCCN)C(=O)N[C@H](C(=O)N[C@@H](CC(C)C)C(N)=O)[C@@H](C)CC [mastoparan]
[3]
  histamine release from WT peritoneal mast cells (MrgprB2^MUT released substantially less): induced histamine release
[4]
  β-hexosaminidase release in MrgprX2 siRNA vs control siRNA cells: significantly reduced

## COc1cc2c(cc1OC)[C@@H](Cc1cc(OC)c(OC)c(OC)c1)[N+](C)(CCCOC(=O)CC/C=C/CCC(=O)OCCC[N+]1(C)CCc3cc(OC)c(OC)cc3[C@H]1Cc1cc(OC)c(OC)c(OC)c1)CC2 (stereo partly shown) [mivacurium]
[5]
  stability of potency of solutions: susceptible to oxidation and/or freeze-thaw effects

## COc1cc2c3cc1Oc1cc(ccc1O)C[C@@H]1c4c(cc(OC)c(O)c4Oc4ccc(cc4)C[C@@H]3N(C)CC2)CC[N+]1(C)C [tubocurarine]
[5]
  stability of potency of solutions: susceptible to oxidation and/or freeze-thaw effects

## BAMS-22: MrgprX1 and MrgprC11 agonist Bovine Adrenal Medulla derived peptide, fragment 8-22 (VGRPEWWMDYQKRYG)
[2]; 500 nM, Fluo-4, p=0.39
  percentages of peritoneal mast cells responding, differences: not significant

## cortistatin
[2]
  activation / responsiveness of peritoneal mast cells, WT vs MrgprB2^MUT: strongly activated WT but not MrgprB2^MUT mast cells

## insulin: Recombinant human insulin from Roche, negative control
[2]
  activation / responsiveness of peritoneal mast cells, WT vs MrgprB2^MUT: had no effect; also recorded: not significant

## streptavidin: stimulus for biotin-conjugated human IgE sensitized LAD2 cells
[4]; 0.1 μg/ml streptavidin, biotin-conjugated human IgE sensitized LAD2 cells
  β-hexosaminidase release: 71.3±1.8 % release

— patent US10696971B2, “MrgprX2/MrgprB2 expressing cell based assay to detect pseudo-allergic drug reactions and to identify blockers to prevent the adverse reactions” (The Johns Hopkins University, priority 2014, dated 2020)
